Measurements as given in the supplement of paper PMC10307832.

Legend:
Test in all cases: relative viability (nuclei count vs DMSO), 5 days (fraction); higher = more cells survive
[1] = system: COR-L23
How it was run: (§1)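 Lung cancer cell lines in 1536-well plates got either a single drug or a fixed anchor-drug dose together with five library-drug doses (not always all listed) in √10 steps, by pin tool, on the day after seeding. Nuclei were counted after 5 days, and relative viability is the treated-to-vehicle ratio of nuclei counts. Values are medians of duplicate plates.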

[2] = system: HARA
How it was run: as §1

[3] = system: SK-LU-1
How it was run: as §1

[4] = system: COR-L 105
How it was run: as §1

[5] = system: NCI-H1792
How it was run: as §1

[6] = system: LCLC-103H
How it was run: as §1

[7] = system: HCC-366
How it was run: as §1

[8] = system: EPLC-272H
How it was run: as §1

[9] = system: NCI-H1975
How it was run: as §1

[10] = system: NCI-H358
How it was run: as §1

[11] = system: NCI-H1944
How it was run: as §1

[12] = system: HCC-78
How it was run: as §1

[13] = system: NCI-H727
How it was run: as §1

[14] = system: NCI-H2085
How it was run: as §1

[15] = system: NCI-H2405
How it was run: as §1

[16] = system: NCI-H2023
How it was run: as §1

[17] = system: HCC-15
How it was run: as §1

[18] = system: HCC-44
How it was run: as §1

[19] = system: NCI-H1395
How it was run: as §1

[20] = system: NCI-H661
How it was run: as §1

[21] = system: UMC-11
How it was run: as §1

[22] = system: NCI-H1437
How it was run: as §1

[23] = system: HCC-827
How it was run: as §1

O=c1[nH]c2ccccc2n1C1CCN(CCCC(c2ccc(F)cc2)c2ccc(F)cc2)CC1 [Pimozide] + O=C(c1cc(Cc2n[nH]c(=O)c3ccccc23)ccc1F)N1CCN(C(=O)C2CC2)CC1 [Olaparib] (partner 8 µM)
relative viability ([1]; first compound 0.08 µM): 0.325
relative viability ([1]; first compound 0.253 µM): 0.308
relative viability ([1]; first compound 0.8 µM): 0.386
relative viability ([1]; first compound 2.53 µM): 0.383
relative viability ([1]; first compound 8 µM): 0.336
relative viability ([2]; first compound 0.08 µM): 0.785
relative viability ([2]; first compound 0.253 µM): 0.764
relative viability ([2]; first compound 0.8 µM): 0.746
relative viability ([2]; first compound 2.53 µM): 0.74
relative viability ([2]; first compound 8 µM): 0.749
relative viability ([3]; first compound 0.08 µM): 0.497
relative viability ([3]; first compound 0.253 µM): 0.485
relative viability ([3]; first compound 0.8 µM): 0.487
relative viability ([3]; first compound 2.53 µM): 0.372
relative viability ([3]; first compound 8 µM): 0.383
relative viability ([4]; first compound 0.08 µM): 0.664
relative viability ([4]; first compound 0.253 µM): 0.659
relative viability ([4]; first compound 0.8 µM): 0.83
relative viability ([4]; first compound 2.53 µM): 0.696
relative viability ([4]; first compound 8 µM): 0.664
relative viability ([5]; first compound 0.08 µM): 0.298
relative viability ([5]; first compound 0.253 µM): 0.452
relative viability ([5]; first compound 0.8 µM): 0.452
relative viability ([5]; first compound 2.53 µM): 0.406
relative viability ([5]; first compound 8 µM): 0.375
relative viability ([6]; first compound 0.08 µM): 0.782
relative viability ([6]; first compound 0.253 µM): 0.721
relative viability ([6]; first compound 0.8 µM): 0.722
relative viability ([6]; first compound 2.53 µM): 0.695
relative viability ([6]; first compound 8 µM): 0.72
relative viability ([7]; first compound 0.08 µM): 0.355
relative viability ([7]; first compound 0.253 µM): 0.332
relative viability ([7]; first compound 0.8 µM): 0.373
relative viability ([7]; first compound 2.53 µM): 0.323
relative viability ([7]; first compound 8 µM): 0.334
relative viability ([8]; first compound 0.08 µM): 0.869
relative viability ([8]; first compound 0.253 µM): 0.709
relative viability ([8]; first compound 0.8 µM): 0.847
relative viability ([8]; first compound 2.53 µM): 0.554
relative viability ([8]; first compound 8 µM): 0.646
relative viability ([9]; first compound 0.08 µM): 0.934
relative viability ([9]; first compound 0.253 µM): 0.782
relative viability ([9]; first compound 0.8 µM): 0.858
relative viability ([9]; first compound 2.53 µM): 0.75
relative viability ([9]; first compound 8 µM): 0.625
relative viability ([10]; first compound 0.08 µM): 0.596
relative viability ([10]; first compound 0.253 µM): 0.583
relative viability ([10]; first compound 0.8 µM): 0.561
relative viability ([10]; first compound 2.53 µM): 0.508
relative viability ([10]; first compound 8 µM): 0.595
relative viability ([11]; first compound 0.08 µM): 0.427
relative viability ([11]; first compound 2.53 µM): 0.35
relative viability ([11]; first compound 8 µM): 0.413
relative viability ([12]; first compound 0.08 µM): 0.832
relative viability ([12]; first compound 0.8 µM): 0.787
relative viability ([12]; first compound 2.53 µM): 0.709
relative viability ([12]; first compound 8 µM): 0.749
relative viability ([13]; first compound 0.08 µM): 0.731
relative viability ([13]; first compound 0.253 µM): 0.674
relative viability ([13]; first compound 0.8 µM): 0.725
relative viability ([13]; first compound 2.53 µM): 0.549
relative viability ([13]; first compound 8 µM): 0.739
relative viability ([14]; first compound 0.08 µM): 0.691
relative viability ([14]; first compound 0.253 µM): 0.82
relative viability ([14]; first compound 0.8 µM): 0.767
relative viability ([14]; first compound 2.53 µM): 0.783
relative viability ([14]; first compound 8 µM): 0.796
relative viability ([15]; first compound 0.08 µM): 0.833
relative viability ([15]; first compound 0.253 µM): 0.826
relative viability ([15]; first compound 0.8 µM): 0.822
relative viability ([15]; first compound 2.53 µM): 0.722
relative viability ([15]; first compound 8 µM): 0.693
relative viability ([16]; first compound 0.08 µM): 0.481
relative viability ([16]; first compound 0.253 µM): 0.47
relative viability ([16]; first compound 0.8 µM): 0.444
relative viability ([16]; first compound 2.53 µM): 0.351
relative viability ([16]; first compound 8 µM): 0.348
relative viability ([17]; first compound 0.08 µM): 0.72
relative viability ([17]; first compound 0.253 µM): 0.672
relative viability ([17]; first compound 0.8 µM): 0.717
relative viability ([17]; first compound 2.53 µM): 0.712
relative viability ([17]; first compound 8 µM): 0.738
relative viability ([18]; first compound 0.08 µM): 1
relative viability ([18]; first compound 0.253 µM): 1.02
relative viability ([18]; first compound 0.8 µM): 0.938
relative viability ([18]; first compound 2.53 µM): 0.973
relative viability ([18]; first compound 8 µM): 0.931
relative viability ([19]; first compound 0.08 µM): 0.445
relative viability ([19]; first compound 0.253 µM): 0.478
relative viability ([19]; first compound 0.8 µM): 0.475
relative viability ([19]; first compound 2.53 µM): 0.456
relative viability ([19]; first compound 8 µM): 0.419
relative viability ([20]; first compound 0.08 µM): 0.735
relative viability ([20]; first compound 0.253 µM): 0.699
relative viability ([20]; first compound 0.8 µM): 0.704
relative viability ([20]; first compound 2.53 µM): 0.675
relative viability ([20]; first compound 8 µM): 0.587
relative viability ([21]; first compound 0.08 µM): 0.394
relative viability ([21]; first compound 0.253 µM): 0.356
relative viability ([21]; first compound 0.8 µM): 0.417
relative viability ([21]; first compound 2.53 µM): 0.371
relative viability ([21]; first compound 8 µM): 0.466
relative viability ([22]; first compound 0.08 µM): 0.615
relative viability ([22]; first compound 0.253 µM): 0.616
relative viability ([22]; first compound 0.8 µM): 0.6
relative viability ([22]; first compound 2.53 µM): 0.573
relative viability ([22]; first compound 8 µM): 0.463
relative viability ([23]; first compound 0.253 µM): 0.627
relative viability ([23]; first compound 0.8 µM): 0.7
relative viability ([23]; first compound 2.53 µM): 0.747
relative viability ([23]; first compound 8 µM): 0.678
